# In patent US20220218776A1, “COMPOSITION FOR USE IN A METHOD FOR PREVENTION OR TREATMENT OF MALTNUTRITION IN A SUBJECT SUFFERING FROM A CHRONIC INFLAMMATORY BOWEL DISEASES” (SOFAR S.P.A., priority 2019, published 2022):
# System: pro-inflammatory patterns typical of IBD
# Assay: depression of pro-inflammatory patterns typical of IBD
# Conditions: administered alone
# Text: According to an aspect of the invention, the casein (ii) contained in the mixture (M), together with (i), (iii) and (iv) (according to any of the described embodiments), is a micellar casein, i.e. in the native form thereof.
substance,measurement,value
casein,pro-inflammatory patterns typical of IBD,capable of depressing pro-inflammatory patterns typical of IBD
